One assay deals with T1, KRAS-G12C/SOS1 (Homo sapiens, UniProt Q07889).
T1 construct: purchased Cisbio 63ADK000CB16PEG
T1 sequence (Q07889 1-1333): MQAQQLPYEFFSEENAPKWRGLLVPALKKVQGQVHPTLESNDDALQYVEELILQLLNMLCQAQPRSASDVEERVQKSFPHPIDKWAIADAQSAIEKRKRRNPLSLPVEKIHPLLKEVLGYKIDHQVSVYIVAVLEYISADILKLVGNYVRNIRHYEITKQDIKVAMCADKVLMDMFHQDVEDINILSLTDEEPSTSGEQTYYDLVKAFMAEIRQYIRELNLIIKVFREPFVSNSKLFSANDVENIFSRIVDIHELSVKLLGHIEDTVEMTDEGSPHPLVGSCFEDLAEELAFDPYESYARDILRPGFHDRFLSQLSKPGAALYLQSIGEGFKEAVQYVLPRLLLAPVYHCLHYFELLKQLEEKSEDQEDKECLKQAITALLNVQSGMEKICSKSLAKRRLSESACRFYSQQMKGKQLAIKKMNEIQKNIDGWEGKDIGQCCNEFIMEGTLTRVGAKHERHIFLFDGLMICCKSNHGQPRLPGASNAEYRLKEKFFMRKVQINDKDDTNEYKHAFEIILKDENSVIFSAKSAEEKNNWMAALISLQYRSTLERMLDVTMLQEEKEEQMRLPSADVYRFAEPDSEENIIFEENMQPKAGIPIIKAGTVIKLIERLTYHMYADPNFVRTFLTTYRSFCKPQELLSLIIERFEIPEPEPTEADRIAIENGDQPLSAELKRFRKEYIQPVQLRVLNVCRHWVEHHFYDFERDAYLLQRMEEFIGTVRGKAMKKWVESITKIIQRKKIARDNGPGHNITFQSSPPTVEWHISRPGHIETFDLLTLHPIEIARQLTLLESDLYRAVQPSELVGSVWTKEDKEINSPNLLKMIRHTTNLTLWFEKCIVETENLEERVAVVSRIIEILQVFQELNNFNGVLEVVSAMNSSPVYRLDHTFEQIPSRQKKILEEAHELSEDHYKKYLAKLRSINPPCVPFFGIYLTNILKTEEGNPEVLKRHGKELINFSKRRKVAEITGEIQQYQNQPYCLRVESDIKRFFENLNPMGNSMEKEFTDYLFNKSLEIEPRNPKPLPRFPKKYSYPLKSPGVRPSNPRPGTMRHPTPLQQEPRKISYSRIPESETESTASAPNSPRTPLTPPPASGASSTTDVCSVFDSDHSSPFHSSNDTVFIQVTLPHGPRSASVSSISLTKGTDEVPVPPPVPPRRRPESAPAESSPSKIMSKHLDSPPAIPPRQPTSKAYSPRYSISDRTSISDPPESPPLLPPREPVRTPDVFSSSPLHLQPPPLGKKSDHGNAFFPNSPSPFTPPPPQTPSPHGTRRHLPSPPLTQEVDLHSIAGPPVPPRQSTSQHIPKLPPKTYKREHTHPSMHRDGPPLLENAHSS
Kind of assay: KRAS-G12C/SOS1 binding assay (HTRF). To be noted: inhibition of KRAS-G12C/SOS1 binding. The protocol:
Test Example 1: KRAS-G12C/SOS1 Binding Assay
The following method was used to determine the extent of inhibition of KRAS-G12C/SOS1 binding by the preferred compounds of the present invention under in vitro conditions. In this method, the competitive inhibition of KRAS-G12C/SOS1 binding by the preferred compounds was assayed by the homogeneous time-resolved fluorescence (HTRF) technology using the KRAS-G12C/SOS1 binding assay kit (Cisbio, 63ADK000CB16PEG).
The experimental procedures were as follows (refer to the kit instructions for details): the compounds of the present invention were each firstly dissolved in DMSO at a concentration of 20 mM, and then diluted in an equal gradient with a buffer in the kit, so that the final concentrations of the test compounds in the reaction system were in a range of 10000 nM-0.04 nM, and the final concentration of DMSO was 0.5%. 2 μL of the compounds were each incubated with 4 μL of 1×Tag1-SOS1, 4 μL of 1×Tag2-KRAS-G12C (containing 10 μM guanosine triphosphate, GTP) at 25° C. for 15 min. Then 5 μL of 1×Anti-Tag1-Tb3+ and 5 μL of 1×Anti-Tag2-XL665 were added to the reaction system, and the mixture was incubated on ice for 3 h. After the incubation, the fluorescence intensity of each well was measured at the excitation wavelength of 337 nm, the fluorescence intensity of each well was read at the emission wavelengths of 620 nm and 665 nm on a microplate reader EnVision (PerkinElmer, 2105) in an HTRF mode, and the Ratio value was calculated by the formula Ratio=(665 nm/620 nm)×[…]. The inhibition rates of the compounds at each concentration were calculated by comparing the fluorescence intensity ratio with that of the control group, and then nonlinear curve fitting was performed by GraphPad Prism 8 in the logarithmic concentration-inhibition rate to obtain the IC50 values of the compounds, as shown in Table 1.
(Time-resolved FRET reads energy transfer from a long-lived donor to a nearby acceptor.)

A further assay has as its target T2, SOS1 protein (Homo sapiens, UniProt Q07889).
T2 sequence (Q07889 1-1333): T1 sequence (Q07889 1-1333)
Kind of assay: SOS1 degradation assay (Western blot) in NCI-H358 cells. It is filed as cell-based. To be noted: NCI-H358 (KRAS G12C), 24 h. The protocol:
The specific procedures were as follows:
0.95 mL of cells were seeded into each well of a 24-well cell culture plate to achieve a cell density of 5×10^5 cells/well; the cell plate was incubated in an incubator at 37° C. with 5% CO2 overnight. Then 50 μL of the compound solution after dilution was added to each of the wells with the corresponding cells, so that the final concentration of the compound was in a range of 0.03-3000 nM.
After dosing, the cell plate was incubated in an incubator at 37° C. with 5% CO2 for 24 h. […] After the plate was left to stand on ice for 30 min, the protein lysate in each well was transferred to a 1.5 mL centrifuge tube and centrifuged at 15000 g for 20 min at 4° C. The cell lysate supernatant after centrifugation was cryopreserved at −80° C. for testing and was used for determining the degradation level of the SOS1 protein by a WB method. The concentration of total protein in the cell lysate supernatant was determined using the BCA Protein Quantification Kit (Tiangen, PA115-02).
The concentration of total protein in the cell lysate was determined by BCA. The total protein was adjusted to 0.5 μg/μL with PBS and 5×SDS- PAGE protein loading buffer (Beyotime, P001L), incubated in a water bath at 100° C. for 15 min, incubated in an ice bath on ice for 5 min, centrifuged at 14000 g for 1 min at 4° C., and mixed well as a loading sample for WB. Protein electrophoresis was performed on a precast gel (KeyGEN, KGMG010W15) with a loading volume of 10 μL (total protein: 5 μg) using a Tris-MOPS-SDS running solution (Adamas, P1598253) at a constant voltage of 120 V for 55 min. After the electrophoresis, the protein on the gel strip was transferred to a PVDF membrane at a constant current of 250 mA for 65 min. After the membrane transfer, the membrane was incubated in 1× QuickBlock blocking buffer (Beyotime, P0235) for 30 min at room temperature. […] The protein map was subjected to gray value analysis by the chemiluminescence imaging system from Clinx. […] Then the degradation rate was calculated by comparing the gray correction value with the gray correction value of the control group. Then nonlinear curve fitting was performed by GraphPad Prism 8 in the logarithmic concentration-inhibition rate to obtain the DC50 and Dmax values of the compounds.
(In western blotting, separated proteins are transferred to a membrane and probed.)

What is called IC50 is the concentration at which inhibition is half-maximal. Low values mean greater potency, high ones weaker potency. The DC50 is the midpoint of the concentration-degradation curve. One may read the Dmax as the largest share of the target that was removed.

Bounds are passed on as bounds.

`CNCc1ccccc1-c1csc([C@@H](C)Nc2nc(C)nc3cc(OC)c([C@H]4CC[C@H](C(=O)N5CCN(CC6CCC7(CC6)CCN(C(=O)c6ccc(Cl)c(N8CCC(=O)NC8=O)c6)CC7)CC5)CC4)cc23)c1` [Example 2, 1-(2-chloro-5-(9-((4-((1R,4R)-4-(7-methoxy-2-methyl-4-(((R)-1-(4-(2-((methylamino)methyl)phenyl)thien-2-yl)ethyl)amino)quinazolin-6-yl)cyclohexane-1-carbonyl)piperazin-1-yl)methyl)-3-azaspiro[5.5]undecane-3-carbonyl)phenyl)dihydropyrimidine-2,4(1H,3H)-dione]: at KRAS-G12C/SOS1, the IC50 was ≤ 15 nM. Moreover, at SOS1 protein, the DC50 is < 50 nM and the Dmax fell in the range of 80 to 100%. Compound `CNCc1ccccc1-c1csc([C@@H](C)Nc2nc(C)nc3cc(OC)c([C@H]4CC[C@H](C(=O)N5CCC(CCCC6CCN(C(=O)c7ccc(Cl)c(N8CCC(=O)NC8=O)c7)CC6)CC5)CC4)cc23)c1` [Example 3, 1-(2-chloro-5-(4-(3-(1-((1R,4R)-4-(7-methoxy-2-methyl-4-(((R)-1-(4-(2-((methylamino)methyl)phenyl)thien-2-yl)ethyl)amino)quinazolin-6-yl)cyclohexane-1-carbonyl)piperidin-4-yl)propyl)piperidine-1-carbonyl)phenyl)dihydropyrimidine-2,4(1H,3H)-dione] returned an IC50 at KRAS-G12C/SOS1 of 15 to 30 nM. Also, at SOS1 protein, the 50% degradation concentration (DC50) fell in the range of 100 to 500 nM and the Dmax was 50 to 80%.

For the compound `COc1cc2nc(C)nc(N[C@@H](C)c3cc(N)cc(C(F)(F)F)c3)c2cc1[C@H]1CC[C@@H](C(=O)N2CCN(CCC3CCC4(CC3)CCN(C(=O)c3ccc(Cl)c(N5CCC(=O)NC5=O)c3)CC4)CC2)CC1` [Example 6, 1-(5-(9-(2-(4-((1S,4S)-4-(4-(((R)-1-(3-amino-5-(trifluoromethyl)phenyl)ethyl)amino)-7-methoxy-2-methylquinazolin-6-yl)cyclohexane-1-carbonyl)piperazin-1-yl)ethyl)-3-azaspiro[5.5]undecane-3-carbonyl)-2-chlorophenyl)dihydropyrimidine-2,4(1H,3H)-dione], on SOS1 protein, the DC50 lay in the range of 1000 to 10000 nM and the “NCI-H358 (G12C) Dmax” value was “C (30≤Dmax (%)<50)”. The compound `CCNc1cc([C@@H](C)Nc2nc(C)nc3cc(OC)c([C@H]4CC[C@H](C(=O)N5CCN(CC6CCC7(CC6)CCN(C(=O)c6ccc(Cl)c(N8CCC(=O)NC8=O)c6)CC7)CC5)CC4)cc23)cc(C(F)(F)F)c1` [Example 7, 1-(2-chloro-5-(9-((4-((1R,4R)-4-(4-(((R)-1-(3-(ethylamino)-5-(trifluoromethyl)phenyl)ethyl)amino)-7-methoxy-2-methylquinazolin-6-yl)cyclohexane-1-carbonyl)piperazin-1-yl)methyl)-3-azaspiro[5.5]undecane-3-carbonyl)phenyl)dihydropyrimidine-2,4(1H,3H)-dione] displayed a maximal degradation (Dmax) on SOS1 protein of 30 to 50%. Consider `COc1cc2nc(C)nc(N[C@H](C)c3cc(N)cc(C(F)(F)F)c3)c2cc1[C@H]1CC[C@H](C(=O)N2CCC(CCCN(C)C3CCN(Cc4ccc(Cl)c(N5CCC(=O)NC5=O)c4)CC3)CC2)CC1` [Example 10, 1-(5-((4-((3-(1-((1R,4R)-4-(4-(((R)-1-(3-amino-5-(trifluoromethyl)phenyl)ethyl)amino)-7-methoxy-2-methylquinazolin-6-yl)cyclohexane-1-carbonyl)piperidin-4-yl)propyl)(methyl)amino)piperidin-1-yl)methyl)-2-chlorophenyl)dihydropyrimidine-2,4(1H,3H)-dione], for which the “NCI-H358 (G12C) Dmax” value on SOS1 protein was “D (Dma (%)<30)”. Same read-out and setting: the value for `COc1cc2nc(C)nc(N[C@H](C)c3cc(N)cc(C(F)(F)F)c3)c2cc1C1CCC(C(=O)N2CCC(CCOCC3CCN(C(=O)c4ccc5c(c4)C(=O)N(C4CCC(=O)NC4=O)C5=O)CC3)CC2)CC1` (stereo partly drawn) [Example 11, 5-(4-((2-(1-((1S,4S)-4-(4-(((R)-1-(3-amino-5-(trifluoromethyl)phenyl)ethyl)amino)-7-methoxy-2-methylquinazolin-6-yl)cyclohexane-1-carbonyl)piperidin-4-yl)ethoxy)methyl)piperidine-1-carbonyl)-2-(2,6-dioxopiperidin-3-yl)isoindoline-1,3-dione] was “A (80≤Dmax (%)≤100)”; that for `Cc1nc(N[C@H](C)c2cc(N)cc(C(F)(F)F)c2)c2cc([C@H]3CC[C@H](C(=O)N4CCN(CC5CCC6(CC5)CCN(C(=O)c5ccc(Cl)c(N7CCC(=O)NC7=O)c5)CC6)CC4)CC3)ncc2n1` [Example 50, 1-(5-(9-((4-((1R,4R)-4-(4-(((R)-1-(3-amino-5-(trifluoromethyl)phenyl)ethyl)amino)-2-methylpyrido[3,4-d]pyrimidin-6-yl)cyclohexane-1-carbonyl)piperazin-1-yl)methyl)-3-azaspiro[5.5]undecane-3-carbonyl)-2-chlorophenyl)dihydropyrimidine-2,4(1H,3H)-dione] was “B (50≤Dmax (%)<80)”.

The record behind these values is US20240261418A1, “SOS1 DEGRADING AGENT AND PREPARATION METHOD THEREFOR AND APPLICATION THEREOF” (SHANGHAI LEADINGTAC PHARMACEUTICAL CO. LTD., priority 2021, published 2024).
